What was measured:
[1] = target: T1, Sodium/glucose cotransporter 1 (Homo sapiens) (UniProt P13866); assay: Inhibition of human SGLT1 expressed in COS1 cells assessed as [14C]methyl-alpha-D-glucopyranoside uptake at 50 uM; format: cell-based; settings: COS-1
T1 sequence (whole entry): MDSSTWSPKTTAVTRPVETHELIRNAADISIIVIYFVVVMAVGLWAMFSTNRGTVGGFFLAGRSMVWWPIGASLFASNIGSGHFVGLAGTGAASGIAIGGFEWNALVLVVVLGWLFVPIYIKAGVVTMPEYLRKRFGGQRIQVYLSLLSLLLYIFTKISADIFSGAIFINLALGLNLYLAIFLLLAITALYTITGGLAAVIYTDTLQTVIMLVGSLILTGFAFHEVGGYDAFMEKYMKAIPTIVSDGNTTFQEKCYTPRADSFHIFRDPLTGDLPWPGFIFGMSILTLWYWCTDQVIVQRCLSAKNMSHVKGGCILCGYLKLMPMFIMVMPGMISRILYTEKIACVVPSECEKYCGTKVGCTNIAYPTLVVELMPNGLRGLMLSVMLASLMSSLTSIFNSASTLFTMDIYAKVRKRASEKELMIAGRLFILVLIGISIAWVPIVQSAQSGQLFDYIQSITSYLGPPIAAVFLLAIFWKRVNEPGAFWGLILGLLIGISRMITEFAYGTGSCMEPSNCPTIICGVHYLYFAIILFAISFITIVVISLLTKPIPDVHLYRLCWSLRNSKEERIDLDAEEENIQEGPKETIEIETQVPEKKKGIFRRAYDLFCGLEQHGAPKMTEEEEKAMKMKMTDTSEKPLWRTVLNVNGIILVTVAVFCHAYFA

[2] = target: T2, Sodium/glucose cotransporter 2 (Homo sapiens) (UniProt P31639); assay: Inhibition of human SGLT2 expressed in COS1 cells assessed as [14C]methyl-alpha-D-glucopyranoside uptake at 50 uM; format: cell-based; settings: COS-1
T2 sequence (whole entry): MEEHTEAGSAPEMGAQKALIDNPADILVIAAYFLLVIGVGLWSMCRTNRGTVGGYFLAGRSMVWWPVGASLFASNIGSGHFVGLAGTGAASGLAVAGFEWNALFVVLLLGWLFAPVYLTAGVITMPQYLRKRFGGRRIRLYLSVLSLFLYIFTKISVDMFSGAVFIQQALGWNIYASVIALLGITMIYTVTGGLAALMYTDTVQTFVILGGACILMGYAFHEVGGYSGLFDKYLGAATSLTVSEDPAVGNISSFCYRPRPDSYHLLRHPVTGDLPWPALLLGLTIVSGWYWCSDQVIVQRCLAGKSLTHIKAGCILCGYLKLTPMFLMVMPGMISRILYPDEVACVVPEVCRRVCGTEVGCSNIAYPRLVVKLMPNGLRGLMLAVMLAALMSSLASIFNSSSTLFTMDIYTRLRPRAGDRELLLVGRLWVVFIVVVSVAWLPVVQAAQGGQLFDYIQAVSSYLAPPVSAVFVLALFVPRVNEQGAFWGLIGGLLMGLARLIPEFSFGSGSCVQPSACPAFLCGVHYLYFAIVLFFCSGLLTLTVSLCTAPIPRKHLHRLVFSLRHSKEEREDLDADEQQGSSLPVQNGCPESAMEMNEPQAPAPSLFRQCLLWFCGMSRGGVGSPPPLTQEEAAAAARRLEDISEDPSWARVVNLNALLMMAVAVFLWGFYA

[3] = target: T3, Sodium/glucose cotransporter 2 (Homo sapiens, UniProt P31639); assay: Inhibition of human SGLT2 expressed in COS1 cells assessed as [14C]methyl-alpha-D-glucopyranoside uptake; format: cell-based, COS-1
T3 sequence (P31639 whole entry): T2 sequence (whole entry)

Structure (SMILES)	inhibition [1] [%]	inhibition [2] [%]	IC50 [3] [µM]
C=C(C)[C@H](CC=C(C)C)Cc1c(O)cc(O)c2c1O[C@H](c1ccc(O)cc1O)CC2=O [SOPHORAFLAVANONE G]	99.2	100	4.1
Oc1ccc2c(c1)OC[C@H]1c3cc4c(cc3O[C@@H]21)OCO4	< 25	66.5	
C=C(C)[C@H](CCC(C)(C)O)Cc1c(O)cc(OC)c2c1O[C@H](c1ccc(O)cc1O)[C@H](O)C2=O	29.7	43.7	
C=C(C)[C@H](CC=C(C)C)Cc1c(O)cc(OC)c(C(=O)/C=C/c2ccc(O)cc2O)c1O	71.1	100	

Other lines, results leading:

inhibition [1] [%]	inhibition [2] [%]	IC50 [3] [µM]	Structure (SMILES)
< 25	< 25		COc1ccc2c(c1)OC[C@H]1c3cc4c(cc3O[C@@H]21)OCO4
< 25	75.4		COc1ccc(-c2coc3cc(O)ccc3c2=O)cc1
98.8	99.7	1.7	C=C(C)C(CC=C(C)C)Cc1c(O)cc(OC)c2c1O[C@H](c1ccc(O)cc1O)CC2=O (stereo partly drawn) [KURARINONE]
58.4	87.3		C=C(C)C(CC=C(C)C)Cc1c(O)cc(OC)c2c1O[C@H](c1ccc(O)cc1O)[C@H](O)C2=O (stereo partly drawn)

Source: ChEMBL document CHEMBL1147913, “Na+-glucose cotransporter (SGLT) inhibitory flavonoids from the roots of Sophora flavescens” (Bioorg Med Chem, 2007)
